# Experimental data from ChEMBL document CHEMBL1201862, “PubChem BioAssay data set” (2004).
#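 Protocol summary: plate cells (96-well), add compound at 5 concentrations, incubate 48 h, interpolate endpoints linearly. GI50 = concentration required for 50% inhibition of growth.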 The source made the active and inactive calls. Cut-off read from the data, not from the text of the source: active = GI50 up to about 1.1 µM and inactive = higher.
# Experiments:
# Test in all cases: NCI tumour cell line growth inhibition, 48 h
# UO-31 = test system: UO-31
# SN12C = test system: SN12C
# IGROV-1 = test system: IGROV-1
# SF-539 = test system: SF-539
# OVCAR-3 = test system: OVCAR-3
# OVCAR-8 = test system: OVCAR-8
# A549 = test system: A549
# MOLT-4 = test system: MOLT-4
# HL-60 = test system: HL-60
# CCRF-CEM = test system: CCRF-CEM
# Malme-3M = test system: Malme-3M
# HCT-15 = test system: HCT-15
# M14 = test system: M14
# NCI/ADR-RES = test system: NCI/ADR-RES
# HCT-116 = test system: HCT-116
# HCC 2998 = test system: HCC 2998
# RPMI-8226 = test system: RPMI-8226
# NCI-H226 = test system: NCI-H226
# SK-OV-3 = test system: SK-OV-3
# SW-620 = test system: SW-620
# OVCAR-5 = test system: OVCAR-5
# SK-MEL-5 = test system: SK-MEL-5
# SF-295 = test system: SF-295
# 786-0 = test system: 786-0
# ACHN = test system: ACHN
# MDA-MB-435 = test system: MDA-MB-435
# COLO 205 = test system: COLO 205
# HT-29 = test system: HT-29
# SNB-19 = test system: SNB-19
# NCI-H460 = test system: NCI-H460
# SF-268 = test system: SF-268
# SR = test system: SR
# T47D = test system: T47D
# UACC-257 = test system: UACC-257
# TK-10 = test system: TK-10
# EKVX = test system: EKVX
# A498 = test system: A498
# HOP-92 = test system: HOP-92
# NCI-H23 = test system: NCI-H23
# MDA-MB-231 = test system: MDA-MB-231
# HOP-62 = test system: HOP-62
# LOX IMVI = test system: LOX IMVI
# DU-145 = test system: DU-145
# BT-549 = test system: BT-549
# CAKI-1 = test system: CAKI-1
# MDA-N = test system: MDA-N
# SK-MEL-28 = test system: SK-MEL-28
# U-251 = test system: U-251
# MCF7 = test system: MCF7
# KM12 = test system: KM12
# PC-3 = test system: PC-3
# SK-MEL-2 = test system: SK-MEL-2
# OVCAR-4 = test system: OVCAR-4
# K562 = test system: K562
# RXF 393 = test system: RXF 393
# SNB-75 = test system: SNB-75
# UACC-62 = test system: UACC-62
# NCI-H522 = test system: NCI-H522
compound,measurement,setting,value
N/C(=N\OC(=O)NC(Cl)=C(Cl)Cl)c1cc(C(F)(F)F)cc(C(F)(F)F)c1,GI50,UO-31,18 µM (inactive)
same,GI50,SN12C,24.3 µM (inactive)
same,GI50,IGROV-1,25.8 µM (inactive)
same,GI50,SF-539,16 µM (inactive)
same,GI50,OVCAR-3,14.8 µM (inactive)
same,GI50,OVCAR-8,20.1 µM (inactive)
same,GI50,A549,15.3 µM (inactive)
same,GI50,MOLT-4,9.48 µM (inactive)
same,GI50,HL-60,12.8 µM (inactive)
same,GI50,CCRF-CEM,4.65 µM (inactive)
same,GI50,Malme-3M,23.9 µM (inactive)
same,GI50,HCT-15,17.3 µM
same,GI50,M14,25.2 µM (inactive)
same,GI50,NCI/ADR-RES,19.5 µM (inactive)
same,GI50,HCT-116,18.6 µM (inactive)
same,GI50,HCC 2998,12.5 µM (inactive)
same,GI50,RPMI-8226,12.5 µM (inactive)
same,GI50,NCI-H226,22.1 µM (inactive)
same,GI50,SK-OV-3,28.4 µM (inactive)
same,GI50,SW-620,18.9 µM (inactive)
same,GI50,OVCAR-5,21.1 µM (inactive)
same,GI50,SK-MEL-5,26.8 µM (inactive)
same,GI50,SF-295,17.5 µM (inactive)
same,GI50,786-0,16.2 µM (inactive)
same,GI50,ACHN,14 µM (inactive)
same,GI50,MDA-MB-435,19.4 µM (inactive)
same,GI50,COLO 205,15.7 µM (inactive)
same,GI50,HT-29,16.9 µM (inactive)
same,GI50,SNB-19,18.7 µM (inactive)
same,GI50,NCI-H460,18.8 µM (inactive)
same,GI50,SF-268,18.7 µM (inactive)
same,GI50,SR,10.7 µM (inactive)
same,GI50,T47D,6.21 µM (inactive)
same,GI50,UACC-257,16.1 µM (inactive)
same,GI50,TK-10,16.5 µM (inactive)
same,GI50,EKVX,13.7 µM (inactive)
same,GI50,A498,17.5 µM (inactive)
same,GI50,HOP-92,14.8 µM (inactive)
same,GI50,NCI-H23,34.9 µM (inactive)
same,GI50,MDA-MB-231,15.8 µM (inactive)
same,GI50,HOP-62,17.9 µM (inactive)
same,GI50,LOX IMVI,16.3 µM (inactive)
same,GI50,DU-145,13.2 µM (inactive)
same,GI50,BT-549,21.8 µM (inactive)
same,GI50,CAKI-1,16.7 µM (inactive)
same,GI50,MDA-N,21.5 µM (inactive)
same,GI50,SK-MEL-28,17.4 µM (inactive)
same,GI50,U-251,16 µM (inactive)
same,GI50,MCF7,25.1 µM (inactive)
same,GI50,KM12,15.8 µM (inactive)
same,GI50,PC-3,17.5 µM (inactive)
COC(=O)[C@H](C)NC(=O)[C@H](CSC)N1C(=O)N[C@@H](C(C)C)C1=O,GI50,SK-MEL-2,> 100 µM (inactive)
same,GI50,UO-31,> 100 µM (inactive)
same,GI50,SN12C,> 100 µM (inactive)
same,GI50,IGROV-1,> 100 µM (inactive)
same,GI50,SF-539,> 100 µM (inactive)
same,GI50,OVCAR-3,> 100 µM (inactive)
same,GI50,OVCAR-8,> 100 µM (inactive)
same,GI50,OVCAR-4,> 100 µM (inactive)
same,GI50,A549,> 100 µM (inactive)
same,GI50,MOLT-4,32.7 µM (inactive)
same,GI50,CCRF-CEM,29.6 µM (inactive)
same,GI50,Malme-3M,49 µM (inactive)
same,GI50,HCT-15,> 100 µM
same,GI50,M14,> 100 µM (inactive)
same,GI50,NCI/ADR-RES,> 100 µM (inactive)
same,GI50,HCT-116,> 100 µM (inactive)
same,GI50,HCC 2998,> 100 µM (inactive)
same,GI50,RPMI-8226,> 100 µM (inactive)
same,GI50,NCI-H226,> 100 µM (inactive)
same,GI50,K562,85.5 µM (inactive)
same,GI50,SK-OV-3,> 100 µM (inactive)
same,GI50,SW-620,> 100 µM (inactive)
same,GI50,OVCAR-5,> 100 µM (inactive)
same,GI50,SK-MEL-5,> 100 µM (inactive)
same,GI50,SF-295,> 100 µM (inactive)
same,GI50,786-0,> 100 µM (inactive)
same,GI50,ACHN,> 100 µM (inactive)
same,GI50,RXF 393,> 100 µM (inactive)
same,GI50,MDA-MB-435,> 100 µM (inactive)
same,GI50,COLO 205,> 100 µM (inactive)
same,GI50,SNB-75,12.5 µM (inactive)
same,GI50,HT-29,> 100 µM (inactive)
same,GI50,SNB-19,> 100 µM (inactive)
same,GI50,NCI-H460,71.3 µM (inactive)
same,GI50,SR,> 100 µM (inactive)
same,GI50,T47D,> 100 µM (inactive)
same,GI50,UACC-257,> 100 µM (inactive)
same,GI50,TK-10,> 100 µM (inactive)
same,GI50,EKVX,> 100 µM (inactive)
same,GI50,HOP-92,> 100 µM (inactive)
same,GI50,NCI-H23,> 100 µM (inactive)
same,GI50,MDA-MB-231,> 100 µM (inactive)
same,GI50,HOP-62,> 100 µM (inactive)
same,GI50,UACC-62,> 100 µM (inactive)
same,GI50,LOX IMVI,> 100 µM (inactive)
same,GI50,DU-145,> 100 µM (inactive)
same,GI50,NCI-H522,> 100 µM (inactive)
same,GI50,BT-549,> 100 µM (inactive)
same,GI50,CAKI-1,> 100 µM (inactive)
same,GI50,MDA-N,> 100 µM (inactive)
same,GI50,SK-MEL-28,> 100 µM (inactive)
same,GI50,U-251,> 100 µM (inactive)
same,GI50,MCF7,> 100 µM (inactive)
same,GI50,KM12,> 100 µM (inactive)
same,GI50,PC-3,> 100 µM (inactive)
